In PubChem BioAssay AID330 (DTP/NCI, 2004):
Where “and” joins values, the source holds several entries; their conditions need not be identical. Identical values can stand only once. Inconclusive results and toxic doses are left out. How the source made its calls: active means survival T/C of 150% or more; inactive means T/C below 125% in these data.

Tested on: P388 leukemia ip, CD2F1 mice, survival T/C
Experiment: NCI In Vivo Anticancer Drug Screen. Data for tumor model P388 Leukemia (intraperitoneal) in CD2F1 (CDF1) mice
Settings: endpoint: median survival time, higher = longer survival
Procedure, shortened: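 Mice carrying the transplanted tumor received test compound or vehicle. Survival was recorded in each group, and the value is the treated-group measurement divided by that of the vehicle-treated control group.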

[1] = dose: 50.0 mg/kg/injection, schedule: Q01DX005 (ip), vehicle: Klucel (hydroxypropylcellulose) (HPC)
[2] = dose: 100.0 mg/kg/injection, schedule: Q01DX005 (ip), vehicle: Klucel (hydroxypropylcellulose) (HPC)
[3] = dose: 200.0 mg/kg/injection, schedule: Q01DX005 (ip), vehicle: Klucel (hydroxypropylcellulose) (HPC)
[4] = dose: 50.0 mg/kg/injection, schedule: Q01DX009 (ip), vehicle: Klucel (hydroxypropylcellulose) (HPC)
[5] = dose: 100.0 mg/kg/injection, schedule: Q01DX009 (ip), vehicle: Klucel (hydroxypropylcellulose) (HPC)
[6] = dose: 50.0 mg/kg/injection, schedule: Q01DX009 (ip), vehicle: saline
[7] = dose: 100.0 mg/kg/injection, schedule: Q01DX009 (ip), vehicle: saline
[8] = dose: 200.0 mg/kg/injection, schedule: Q01DX009 (ip), vehicle: saline
[9] = dose: 50.0 mg/kg/injection, schedule: Q01DX009 (ip), vehicle: saline with Tween-80
[10] = dose: 100.0 mg/kg/injection, schedule: Q01DX009 (ip), vehicle: saline with Tween-80
[11] = dose: 100.0 mg/kg/injection, schedule: Q04DX002 (ip), vehicle: saline with Tween-80
[12] = dose: 200.0 mg/kg/injection, schedule: Q04DX002 (ip), vehicle: saline with Tween-80
[13] = dose: 400.0 mg/kg/injection, schedule: Q04DX002 (ip), vehicle: saline with Tween-80

Measured: T/C

O=c1ccn(C2OC(COC(c3ccccc3)(c3ccccc3)c3ccccc3)C(OC(c3ccccc3)(c3ccccc3)c3ccccc3)C2O)c(=O)[nH]1 (configuration not stated)
inactive: dose: 25.0 mg/kg/injection, schedule: Q01DX005 (ip), vehicle: Klucel (hydroxypropylcellulose) (HPC) 99 % of control | [1] 95 % of control | [2] 105 % of control | [3] 97 % of control

CN(C)C(=S)Nc1ccc(S(=O)(=O)N2CCCCC2)cc1
inactive: [4] 105 % of control | [5] 105 % of control | dose: 200.0 mg/kg/injection, schedule: Q01DX009 (ip), vehicle: Klucel (hydroxypropylcellulose) (HPC) 105 % of control | dose: 400.0 mg/kg/injection, schedule: Q01DX009 (ip), vehicle: Klucel (hydroxypropylcellulose) (HPC) 101 % of control

CCOC(=C[P+](c1ccccc1)(c1ccccc1)c1ccccc1)OCC
inactive: dose: 0.39 mg/kg/injection, schedule: Q01DX005 (ip), vehicle: water 98 % of control and 103 % of control | dose: 0.78 mg/kg/injection, schedule: Q01DX005 (ip), vehicle: water 107 % of control and 96 % of control | dose: 1.56 mg/kg/injection, schedule: Q01DX005 (ip), vehicle: water 102 % of control and 110 % of control and 121 % of control | dose: 3.12 mg/kg/injection, schedule: Q01DX005 (ip), vehicle: water 113 % of control and 118 % of control and 124 % of control | dose: 6.25 mg/kg/injection, schedule: Q01DX005 (ip), vehicle: water 109 % of control

COc1cccc(OC)c1C(=O)Nc1cccc(NC(=O)c2c(OC)cccc2OC)n1
inactive: dose: 50.0 mg/kg/injection, schedule: Q01DX005 (ip), vehicle: saline with Tween-80 95 % of control | dose: 100.0 mg/kg/injection, schedule: Q01DX005 (ip), vehicle: saline with Tween-80 93 % of control | dose: 200.0 mg/kg/injection, schedule: Q01DX005 (ip), vehicle: saline with Tween-80 93 % of control

CNCS(=O)(=O)O
inactive: [6] 106 % of control | [7] 101 % of control | [8] 93 % of control

CCc1nn(CCCN2CCN(c3cccc(Cl)c3)CC2)c(=O)n1CC
inactive: [6] 114 % of control | [7] 116 % of control

Brc1ccc(C[N+]23CN4CN(CN(C4)C2)C3)cc1
inactive: [9] 100 % of control | [10] 120 % of control | dose: 100.0 mg/kg/injection, schedule: Q04DX003 (ip), vehicle: saline 110 % of control | dose: 200.0 mg/kg/injection, schedule: Q04DX003 (ip), vehicle: saline 110 % of control

NC(=S)n1nc(-c2ccccc2)c(N=Nc2cc(Cl)ccc2Cl)c1-c1ccccc1
inactive: [11] 89 % of control | [12] 90 % of control | [13] 110 % of control

CC1(C)C2=CCC[C@H]2[C@H]2[C@@H](OC(=O)/C=C/c3ccccc3)CC[C@H]21
inactive: dose: 100.0 mg/kg/injection, schedule: Q01DX001 (ip), vehicle: Klucel (hydroxypropylcellulose) (HPC) 100 % of control | dose: 200.0 mg/kg/injection, schedule: Q01DX001 (ip), vehicle: Klucel (hydroxypropylcellulose) (HPC) 103 % of control | dose: 400.0 mg/kg/injection, schedule: Q01DX001 (ip), vehicle: Klucel (hydroxypropylcellulose) (HPC) 103 % of control

CN(C)/C(=N\O)c1ccccc1
inactive: dose: 3.12 mg/kg/injection, schedule: Q04DX003 (ip), vehicle: saline 100 % of control and 105 % of control | dose: 6.25 mg/kg/injection, schedule: Q04DX003 (ip), vehicle: saline 100 % of control and 90 % of control | dose: 12.5 mg/kg/injection, schedule: Q04DX003 (ip), vehicle: saline 100 % of control and 95 % of control

O=C(O)C(Cc1cn(Cc2ccccc2)cn1)NCc1ccccc1 (configuration not stated)
inactive: [1] 92 % of control | [2] 104 % of control | [3] 95 % of control

C=CCc1ccc(O)c(OC)c1
inactive: dose: 50.0 mg/kg/injection, schedule: Q01DX009 (ip), vehicle: other 101 % of control | dose: 100.0 mg/kg/injection, schedule: Q01DX009 (ip), vehicle: other 107 % of control

COc1ccc(OCC2=NCCc3ccccc32)cc1
inactive: [1] 99 % of control | [2] 107 % of control | [3] 109 % of control

C=C1C(=O)OC2CC1C(OC(=O)/C=C/c1ccccc1)C/C(C)=C/CC/C(C)=C/CCC2(C)O (configuration not stated)
inactive: dose: 12.5 mg/kg/injection, schedule: Q01DX009 (ip), vehicle: Klucel (hydroxypropylcellulose) (HPC) 113 % of control | dose: 25.0 mg/kg/injection, schedule: Q01DX009 (ip), vehicle: Klucel (hydroxypropylcellulose) (HPC) 113 % of control | [4] 118 % of control | [5] 110 % of control

Cc1ccc(C2COc3cc(O)c(O)cc3C2)cc1 (configuration not stated)
inactive: dose: 60.0 mg/kg/injection, schedule: Q01DX005 (ip), vehicle: saline with Tween-80 103 % of control | dose: 120.0 mg/kg/injection, schedule: Q01DX005 (ip), vehicle: saline with Tween-80 105 % of control | dose: 240.0 mg/kg/injection, schedule: Q01DX005 (ip), vehicle: saline with Tween-80 117 % of control

CN(C)C1CCc2[nH]c3c(F)cc(F)cc3c2C1 (configuration not stated)
inactive: [9] 102 % of control

O=C(CC(=O)C(F)(F)F)c1ccc(-c2ccccc2)cc1
inactive: dose: 25.0 mg/kg/injection, schedule: Q01DX009 (ip), vehicle: saline with Tween-80 110 % of control | [9] 116 % of control | [10] 111 % of control

COc1cc2oc(=O)cc(C)c2cc1N=C=S
inactive: dose: 50.0 mg/kg/injection, schedule: Q04DX003 (ip), vehicle: suspension in saline 100 % of control | dose: 100.0 mg/kg/injection, schedule: Q04DX003 (ip), vehicle: suspension in saline 100 % of control | dose: 200.0 mg/kg/injection, schedule: Q04DX003 (ip), vehicle: suspension in saline 92 % of control

Cc1nc2c(cc1[N+](=O)[O-])C(=O)NCCN2
inactive: dose: 25.0 mg/kg/injection, schedule: Q04DX003 (ip), vehicle: Klucel (hydroxypropylcellulose) (HPC) 91 % of control | dose: 50.0 mg/kg/injection, schedule: Q04DX003 (ip), vehicle: Klucel (hydroxypropylcellulose) (HPC) 100 % of control | dose: 100.0 mg/kg/injection, schedule: Q04DX003 (ip), vehicle: Klucel (hydroxypropylcellulose) (HPC) 96 % of control

COC(=O)C(OC)(OC)C(O)C(C)C (configuration not stated)
inactive: dose: 60.0 mg/kg/injection, schedule: Q01DX005 (ip), vehicle: saline 104 % of control | dose: 120.0 mg/kg/injection, schedule: Q01DX005 (ip), vehicle: saline 103 % of control | dose: 240.0 mg/kg/injection, schedule: Q01DX005 (ip), vehicle: saline 103 % of control

COc1cccc2c1C(=O)c1c(O)c3c(c(O)c1C2=O)CC(O)(/C(C)=N/NC(=O)CC(=O)N/N=C(\C)C1(O)Cc2c(O)c4c(c(O)c2C(OC2CC(N)C(O)C(C)O2)C1)C(=O)c1c(OC)cccc1C4=O)CC3OC1CC(N)C(O)C(C)O1 (configuration not stated)
active: dose: 3.13 mg/kg/injection, schedule: Q01DX009 (ip), vehicle: water 153 % of control | dose: 6.25 mg/kg/injection, schedule: Q01DX009 (ip), vehicle: water 169 % of control
inactive: dose: 3.13 mg/kg/injection, schedule: Q04DX003 (ip), vehicle: water 101 % of control | dose: 6.25 mg/kg/injection, schedule: Q04DX003 (ip), vehicle: water 110 % of control | dose: 12.5 mg/kg/injection, schedule: Q04DX003 (ip), vehicle: water 112 % of control

CCC[CH2][Sn]1([CH2]CCC)[O]C(=O)c2c(Cl)c(Cl)c(Cl)c(Cl)c2C(=O)[O]1
inactive: dose: 1.56 mg/kg/injection, schedule: Q01DX005 (ip), vehicle: saline with Tween-80 110 % of control and 115 % of control | dose: 3.13 mg/kg/injection, schedule: Q01DX005 (ip), vehicle: saline with Tween-80 119 % of control and 120 % of control | dose: 6.25 mg/kg/injection, schedule: Q01DX005 (ip), vehicle: saline with Tween-80 119 % of control and 120 % of control

COC(=O)c1nn(-c2ccccc2)c2nc3ccccc3c-2c1C(=O)OC
inactive: [11] 108 % of control | [12] 108 % of control | [13] 97 % of control

O=c1c2ccccc2nc2n1OCC2
inactive: [6] 103 % of control | [7] 111 % of control | [8] 111 % of control

NC(=O)C(N)CCCC1NC(=S)N(c2ccccc2)C1=O (configuration not stated)
inactive: dose: 60.0 mg/kg/injection, schedule: Q01DX005 (ip), vehicle: Klucel (hydroxypropylcellulose) (HPC) 92 % of control | dose: 120.0 mg/kg/injection, schedule: Q01DX005 (ip), vehicle: Klucel (hydroxypropylcellulose) (HPC) 93 % of control | dose: 240.0 mg/kg/injection, schedule: Q01DX005 (ip), vehicle: Klucel (hydroxypropylcellulose) (HPC) 86 % of control

CC(C)(C)c1cc(C(c2ccccc2)(c2ccccc2)c2ccccc2)cc2c1OP(F)(c1ccccc1)(c1ccccc1)N2
inactive: [9] 91 % of control | [10] 95 % of control | dose: 200.0 mg/kg/injection, schedule: Q01DX009 (ip), vehicle: saline with Tween-80 91 % of control
